Measured values reported in US20010047099A1, “4-aminopicolinates and their use as herbicides” (priority 2000, published 2001).
Like-named read-outs stand apart in the source and are kept apart here.

Assays:
Format in all cases: in vivo
[1] = tested on: chickweed (Stellaria media); test: Postemergence herbicidal activity; details: for inhibition at 125 ppm / pest or weed control at 125 ppm / pest or weed control at 250 ppm: Stellaria media, post-emergence, 336 h; for inhibition at 125 ppm: Table 2, read-out: POSTMERGENCE HERBICIDAL ACTIVITY % CONTROL STEME; for pest or weed control at 125 ppm / pest or weed control at 250 ppm: read-out: Post-emergent % Control STEME
In short: (§1)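 Plants are raised from seed under greenhouse conditions until the first or second true leaf appears. They are then sprayed with test solutions at known concentrations, where 1 ppm corresponds to roughly 1 g/Ha. Two weeks later, injury is rated by eye from 0 to 100%.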

[2] = tested on: cocklebur (Xanthium strumarium); test: Postemergence herbicidal activity; details: Xanthium strumarium, post-emergence, 336 h; for inhibition at 125 ppm: Table 2, read-out: POSTMERGENCE HERBICIDAL ACTIVITY % CONTROL XANST; for pest or weed control at 125 ppm / pest or weed control at 250 ppm: read-out: Post-emergent % Control XANST; for pest or weed control at 250 ppm: rate 250 ppm
In short: as §1

[3] = tested on: wild buckwheat (Polygonum convolvulus); test: Postemergence herbicidal activity; details: for inhibition at 125 ppm / pest or weed control at 125 ppm / pest or weed control at 250 ppm: Fallopia convolvulus, post-emergence, 336 h; for inhibition at 125 ppm: Table 2, read-out: POSTMERGENCE HERBICIDAL ACTIVITY % CONTROL POLCO; for pest or weed control at 125 ppm / pest or weed control at 250 ppm: read-out: Post-emergent % Control POLCO
In short: as §1

[4] = tested on: morningglory (Ipomoea hederacea); test: Preemergence herbicidal activity; details: Ipomoea, 504 h, read-out: % Control IPOHE; for pest or weed control at 560 ppm: rate 560 ppm
In short: (§2)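 Test compounds, dissolved in acetone/DMSO and diluted with 0.1 percent Tween 155 in water, are applied evenly to the surface of seeded soil (loam/sand, pH about 8.1) before emergence. Plants grow in the greenhouse for 3 weeks before visual rating against untreated controls on a 0-100 percent scale.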

[5] = tested on: pigweed (Amaranthus retroflexus); test: Preemergence herbicidal activity; details: Amaranthus retroflexus, 504 h; for pest or weed control at 280 ppm / pest or weed control at 560 ppm: read-out: % Control AMARE; for inhibition at 35 g/ha: pre-emergence, Table 7, rate 35 g/Ha; for pest or weed control at 560 ppm: rate 560 ppm
In short: as §2

[6] = tested on: velvetleaf (Abutilon theophrasti); test: Preemergence herbicidal activity; details: Abutilon theophrasti, 504 h; for pest or weed control at 280 ppm / pest or weed control at 560 ppm: read-out: % Control ABUTH; for inhibition at 35 g/ha: pre-emergence, Table 7, rate 35 g/Ha; for pest or weed control at 560 ppm: rate 560 ppm
In short: as §2

[7] = tested on: Canada thistle (Cirsium arvense); test: Range & Pasture Crop Testing (postemergence track sprayer); details: for GR80 CIRAR: Table 10, clover pasture, postemergence
In short: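 Postemergence track-sprayer application at 187 L/ha, compounds formulated in 97:3 acetone:DMSO with 0.25% X-77, five rates (X serially diluted to 1/16×). Visual percent control (0–100 scale, burn down) rated 3 weeks after treatment; GR50/GR80 derived by probit analysis.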

[8] = Table 1, rate 125 ppm, visual, after 2 weeks
[9] = Table 6 (headed Post-emergent; text: preemergence), rate 280 ppm, after 3 weeks
[10] = after 3 weeks, read-out: PREEMERGENCE HERBICIDAL ACTIVITY % CONTROL AMARE
[11] = after 3 weeks, read-out: PREEMERGENCE HERBICIDAL ACTIVITY % CONTROL ABUTH
[12] = Table 1, rate 250 ppm, visual, after 2 weeks
[13] = Table 6 (headed Post-emergent; text: preemergence), after 3 weeks

SMILES	pest or weed control at 125 ppm [1, 8] [%]	pest or weed control at 125 ppm [2, 8] [%]	pest or weed control at 125 ppm [3, 8] [%]	pest or weed control at 280 ppm [4, 9] [%]	pest or weed control at 280 ppm [5, 9] [%]	inhibition at 35 g/ha [5, 10] [%]	pest or weed control at 280 ppm [6, 9] [%]	inhibition at 35 g/ha [6, 11] [%]	GR80 CIRAR [7] [g/ha]	inhibition at 125 ppm ([1]; rate 125 ppm, after 2 weeks) [%]	inhibition at 125 ppm ([2]; rate 125 ppm, after 2 weeks) [%]	inhibition at 125 ppm ([3]; rate 125 ppm, after 2 weeks) [%]	pest or weed control at 250 ppm [1, 12] [%]	pest or weed control at 250 ppm ([2]; Table 1, visual, after 2 weeks) [%]	pest or weed control at 250 ppm [3, 12] [%]	pest or weed control at 560 ppm [4, 13] [%]	pest or weed control at 560 ppm [5, 13] [%]	pest or weed control at 560 ppm [6, 13] [%]	other results
Nc1cc(Cl)nc(C(=O)O)c1Cl [Compound 1, 4-Amino-3,6-dichloropyridine-2-carboxylic acid]	–	–	–	–	–	–	–	–	–	–	–	–	–	–	–	–	–	–	inhibition at 125 ppm ([1]; read-out: PO[…] % CONTROL STEME, rate 125 ppm, after 2 weeks): 90%; pest or weed control at 125 ppm [1]: 100%; inhibition at 125 ppm ([2]; read-out: PO[…] % CONTROL XANST, rate 125 ppm, after 2 weeks): 100%; pest or weed control at 125 ppm [2]: 95%; inhibition at 125 ppm ([3]; read-out: PO[…] % CONTROL POLCO, rate 125 ppm, after 2 weeks): 100%; pest or weed control at 125 ppm [3]: 100%; pest or weed control at 280 ppm [4]: 100%; pest or weed control at 280 ppm [5]: 100%; inhibition at 35 g/ha ([5]; read-out: PR[…] % CONTROL AMARE, after 3 weeks): 88%; pest or weed control at 280 ppm [6]: 100%; inhibition at 35 g/ha ([6]; read-out: PR[…] % CONTROL ABUTH, after 3 weeks): 95%; Post-emergent GR80 CIRAR ([7]; Table 8, salts of Compound 1, 3 week evaluation): 47 g/Ha
COC(=O)c1nc(Cl)cc(N)c1Cl [Compound 3, methyl 4-amino-3,6-dichloropyridine-2-carboxylate]	100	100	100	100	100	90	100	95	<17.5	–	–	–	–	–	–	–	–	–	Post-emergent Evaluation - % control CIRAR ([7]; Table 9, rate 70 g/Ha, 3 weeks after treatment): 90%
CCOC(=O)c1nc(Cl)cc(N)c1Cl [Compound 4, ethyl 4-amino-3,6-dichloropyridine-2-carboxylate]	100	100	100	100	100	–	100	–	<17.5	70	100	100	–	–	–	–	–	–	–
Nc1cc(Br)nc(C(=O)O)c1Cl [Compound 14, 4-Amino-6-bromo-3-chloropyridine-2-carboxylic acid]	–	–	–	–	–	100	–	100	–	65	100	100	90	85	50	100	90	100	Post-emergent Evaluation - % control STEME ([1]; Table 5, rate 250 ppm): 70%; Post-emergent Evaluation - % control POLCO ([3]; Table 5, rate 250 ppm): 90%
Nc1c(F)c(Cl)nc(C(=O)O)c1Cl [Compound 19, 4-Amino-3,6-dichloro-5-fluoropyridine-2-carboxylic acid]	95	95	100	–	–	–	–	–	–	60	95	100	–	–	–	100	100	100	–
COc1c(C(=O)O)nc(Br)c(Cl)c1N [Compound 42, 4-Amino-6-bromo-5-chloro-3-methoxypyridine-2-carboxylic acid]	–	–	–	–	–	60	–	80	–	–	–	–	90	85	90	100	100	100	–
